# Measured values from patent US7220784B2, “Substituted stilbenes and their reactions” (priority 2000, dated 2007).
# Like-named read-outs stand apart in the source and are kept apart here.
# Experiments:
# K562 cells = test: In situ ultra violet irradiation of dosed K562 cells, IC50; type: cell-based, human; conditions: Homo sapiens, read-out: IC50 K562
# [1] = test system: P388 murine leukaemia cell line; test: Cytotoxicity/growth inhibition assay (MTT), P388; type: cell-based; conditions: MTT
# Method in brief: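 Growth inhibition of P388 murine and K562 human leukaemia cells measured by MTT assay.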
# Maximum tolerated dose = conditions: mouse, in vivo; mice
# Text: The in vitro studies reported in Table 11 illustrate the structure requirements necessary for biological activity. Modifications of the A ring have shown that the methoxy groups can be replaced by alkoxy or alkyl (28,31a,32a) whilst retaining their ability to inhibit assembly of isolated tubulin. Similarly, molecules with alkyl substituents on the ethene bridge (19,20,46) retain activity both as inhibitors of tubulin assembly and are growth inhibitory in vitro. The pharmacophore consists of a stilbene in a cis configuration with a small alkyl or O-alkyl substituent at the 4-position of the B ring. […] These agents show good activity in the shape-change (permeability) assay. This test is used as an in vitro assay of vascular damage. […] 97–64H was given at either ⅔ of the maximum tolerated dose (MTD=200 mg/kg) or at ¾ of the MTD to mice bearing liver metastatic T50:80 tumours. Tumours were removed and examined for evidence of vascular damage at 2 hr and 4 hr following drug administration. Similarly a dose equivalent to ¾ of the MTD was administered and the tumours examined 24 hr and 48 hr following administration of drug. […] These effects are seen within 2 hours.
smiles,measurement,setting,value
"COc1ccc(/C=C/c2cc(OC)c(OC)c(OC)c2)cc1O [trans-CA-4, trans-combretastatin A-4]",IC50,"K562 cells; K562, 0 h, in situ UV 0 mins (Table 6)",1200 nM
same,IC50,"K562 cells; K562, 1 min, in situ UV 1 mins (Table 6)",3.6 nM
same,IC50,"K562 cells; K562, 2 min, in situ UV 2 mins (Table 6)",2.9 nM
same,IC50,"K562 cells; K562, 0.05 h, in situ UV 3 mins (Table 6)",1.7 nM
same,IC50,"K562 cells; K562, 4 min, in situ UV 4 mins (Table 6)",4.4 nM
same,IC50,"K562 cells; K562, 5 min, in situ UV 5 mins (Table 6)",2.7 nM
same,IC50,"K562 cells; K562, 0.1 h, in situ UV 6 mins (Table 6)",2.9 nM
same,IC50,"K562 cells; K562, 7 min, in situ UV 7 mins (Table 6)",1.9 nM
same,IC50,"K562 cells; K562, 8 min, in situ UV 8 mins (Table 6)",3 nM
same,IC50,"K562 cells; K562, 0.15 h, in situ UV 9 mins (Table 6)",2.5 nM
same,IC50,"K562 cells; K562, 12.5 min, in situ UV 12.5 mins (Table 6)",2.4 nM
same,IC50,"K562 cells; K562, 0.25 h, in situ UV 15.0 mins (Table 6)",2 nM
same,IC50,"K562 cells; K562, 17.5 min, in situ UV 17.5 mins (Table 6)",1.7 nM
same,IC50,"K562 cells; K562, 20 min, in situ UV 20.0 mins (Table 6)",2.7 nM
same,IC50,"K562 cells; K562, in situ UV, repeated experiment, 0 secs (Table 7)",580 nM
same,IC50,"K562 cells; K562, in situ UV, repeated experiment, 5 secs (Table 7)",35 nM
same,IC50,"K562 cells; K562, in situ UV, repeated experiment, 10 secs (Table 7)",40 nM
same,IC50,"K562 cells; K562, in situ UV, repeated experiment, 15 secs (Table 7)",20 nM
same,IC50,"K562 cells; K562, in situ UV, repeated experiment, 20 secs (Table 7)",18 nM
same,IC50,"K562 cells; K562, in situ UV, repeated experiment, 25 secs (Table 7)",17 nM
same,IC50,"K562 cells; K562, in situ UV, repeated experiment, 30 secs (Table 7)",15 nM
same,IC50,"K562 cells; K562, in situ UV, repeated experiment, 35 secs (Table 7)",11 nM
same,IC50,"K562 cells; K562, in situ UV, repeated experiment, 40 secs (Table 7)",11 nM
same,IC50,"K562 cells; K562, in situ UV, repeated experiment, 45 secs (Table 7)",9 nM
same,IC50,"K562 cells; K562, in situ UV, repeated experiment, 50 secs (Table 7)",9 nM
same,IC50,"K562 cells; K562, in situ UV, repeated experiment, 55 secs (Table 7)",9 nM
same,IC50,"K562 cells; K562, in situ UV, repeated experiment, 60 secs (Table 7)",8 nM
COc1ccc(C=Cc2cc(OC)c(OC)c(OC)c2)cc1F [Compound 97-64H],IC50,[1],0.489 nM
same,MTD,Maximum tolerated dose,200 mg/kg
